# Experimental data taken from patent US12667572B2, “Tricyclic compounds useful in the treatment of cancer, autoimmune and inflammatory disorders” (SCHRÖDINGER, INC., priority 2021, dated 2026).
# Assays:
# [1] = molecular target: T1, full-length MALT1 protein His-MALT1(1-824) (Homo sapiens, UniProt Q9UDY8); experiment: MALT1 protease assay, Assay 1 (2 nM MALT1, Ac-LRSR-AMC substrate); assay type: biochemical; conditions: 2 nM MALT1, 50 μM Ac-LRSR-AMC, 2 h pre-incubation, 8 hr incubation at RT
# T1 construct: full-length MALT1 protein His-MALT1(1-824); His (N); made in house; host or cells: baculovirus-infected insect cells
# T1 sequence (Q9UDY8 1-824): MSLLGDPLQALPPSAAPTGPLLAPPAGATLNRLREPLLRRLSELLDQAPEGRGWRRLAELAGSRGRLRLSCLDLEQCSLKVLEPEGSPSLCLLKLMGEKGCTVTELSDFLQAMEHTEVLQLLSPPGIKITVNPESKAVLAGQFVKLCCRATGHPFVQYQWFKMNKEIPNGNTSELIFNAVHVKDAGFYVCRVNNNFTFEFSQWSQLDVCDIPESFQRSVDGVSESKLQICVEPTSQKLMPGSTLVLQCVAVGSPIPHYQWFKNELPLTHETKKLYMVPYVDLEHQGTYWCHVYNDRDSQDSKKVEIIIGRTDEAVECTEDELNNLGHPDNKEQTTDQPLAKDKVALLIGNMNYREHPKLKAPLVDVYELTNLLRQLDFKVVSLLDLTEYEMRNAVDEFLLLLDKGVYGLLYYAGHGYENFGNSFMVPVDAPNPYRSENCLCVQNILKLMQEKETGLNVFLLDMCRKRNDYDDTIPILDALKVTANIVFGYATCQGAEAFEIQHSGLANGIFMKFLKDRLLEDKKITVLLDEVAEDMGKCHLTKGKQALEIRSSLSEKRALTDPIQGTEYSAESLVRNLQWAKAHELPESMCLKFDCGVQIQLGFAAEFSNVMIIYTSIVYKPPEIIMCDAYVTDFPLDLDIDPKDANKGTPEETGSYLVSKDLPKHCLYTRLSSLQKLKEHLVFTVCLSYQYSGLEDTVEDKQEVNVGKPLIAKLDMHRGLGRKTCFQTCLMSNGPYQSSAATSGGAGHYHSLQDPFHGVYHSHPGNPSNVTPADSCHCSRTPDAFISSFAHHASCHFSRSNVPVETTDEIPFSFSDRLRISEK
# Experimental: MALT1 protease activity was assessed in an in vitro assay using a tetrapeptide as substrate and full-length MALT1 protein His-MALT1(1-824) purified from baculovirus-infected insect cells. The tetrapeptide substrate is Ac-LRSR-AMC (SM Biochemicals) with Km measured at around 100 μM.
# The final assay buffer includes 1 nM (Assay 2) or 2 nM (Assay 1) of MALT1 full-length protein, 50 μM Ac-LRSR-AMC substrate, 50 mM Tris pH 7.5, 600 mM Sodium Citrate, 1 mM DTT, 1 mM EDTA, and 0.05% BSA in 384-well plate format using black microtiter square well plates (Optiplate 384-F, Perkin Elmer).
# Test compounds were dissolved in 100% DMSO at stock of 10 mM, with final DMSO concentration 0.1%. Test compounds were pre-incubated with MALT1 protein for 2 h at room temperature. Substrate was added after the pre-incubation and fluorescence signal was measured using Envision at excitation 355 nm and emission 460 nm after 8 hr incubation at RT. Increase in the assay signal was linear over this period and proportional with increase in the enzyme content.
# The fluorescence units were transformed to percentage of remaining activity by using the high control (HC, median of fluorescence signal from wells containing MALT1 protein, substrate, and DMSO) and low control (LC, median of fluorescence signal from wells with substrate only) with the formula below: […]
# IC50 and Hill coefficients were obtained using Graph Pad Prism (Graph Pad software, Inc, USA) with non-linear regression analysis.
# [2] = molecular target: T1, full-length MALT1 protein His-MALT1(1-824); experiment: MALT1 protease assay, Assay 2 (1 nM MALT1, Ac-LRSR-AMC substrate); assay type: biochemical; conditions: 1 nM MALT1, 50 μM Ac-LRSR-AMC, 2 h pre-incubation, 8 hr incubation at RT
# In short: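 Full-length His-MALT1(1-824) from baculovirus-infected insect cells, pre-incubated with compound 2 h at RT (0.1% DMSO). Then 50 μM Ac-LRSR-AMC added. Buffer was Tris pH 7.5 with 600 mM sodium citrate, DTT, EDTA and BSA. Fluorescence (ex 355/em 460 nm) was read after 8 h at RT and normalized to high/low controls. IC50 from non-linear regression.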
IC50 [1] [nM],IC50 [2] [nM],Structure (SMILES)
100 to 1000,–,"CC1(C)c2c(cnc3cc(Cl)nn23)C(C(=O)Nc2cnc(-n3nccn3)c(Cl)c2)C1O (racemic) [Example 19, 2-chloro-N-(5-chloro-6-(2H-1,2,3-triazol-2-yl)pyridin-3-yl)-7-hydroxy-8,8-dimethyl-7,8-dihydro-6H-cyclopenta[e]pyrazolo[1,5-a]pyrimidine-6-carboxamide]"
100 to 1000,–,"CC1(C)CC(C(=O)Nc2cnc(-n3nccn3)c(Cl)c2)c2cnc3cc(Cl)nn3c21 (single isomer, unassigned) [Example 1, 2-chloro-N-(5-chloro-6-(2H-1,2,3-triazol-2-yl)pyridin-3-yl)-8,8-dimethyl-7,8-dihydro-6H-cyclopenta[e]pyrazolo[1,5-a]pyrimidine-6-carboxamide]"
≥ 1000,–,"CC1(C)C[C@@H](C(=O)Nc2cnc(-n3nccn3)c(Cl)c2)c2cnc3cc(C#N)nn3c21 (single isomer, unassigned) [Example 3, N-(5-chloro-6-(2H-1,2,3-triazol-2-yl)pyridin-3-yl)-2-cyano-8,8-dimethyl-7,8-dihydro-6H-cyclopenta[e]pyrazolo[1,5-a]pyrimidine-6-carboxamide]"
≥ 1000,–,"Cc1cc2ncc3c(n2n1)C(C)(C)C[C@H]3C(=O)Nc1cnc(-n2nccn2)c(Cl)c1 (single isomer, unassigned) [Example 5, N-(5-chloro-6-(2H-1,2,3-triazol-2-yl)pyridin-3-yl)-2,8,8-trimethyl-7,8-dihydro-6H-cyclopenta[e]pyrazolo[1,5-a]pyrimidine-6-carboxamide]"
≥ 1000,–,"CC1(C)CC[C@@H](C(=O)Nc2cnc(-n3nccn3)c(Cl)c2)c2cnc3cc(Cl)nn3c21 (single isomer, unassigned) [Example 8, 2-chloro-N-(5-chloro-6-(2H-1,2,3-triazol-2-yl)pyridin-3-yl)-9,9-dimethyl-6,7,8,9-tetrahydropyrazolo[1,5-a]quinazoline-6-carboxamide]"
≥ 1000,–,"Cn1ccc(-c2ncc(NC(=O)[C@@H]3CC(C)(C)c4c3cnc3cc(Cl)nn43)cc2Cl)n1 (single isomer, unassigned) [Example 10, 2-chloro-N-(5-chloro-6-(1-methyl-1H-pyrazol-3-yl)pyridin-3-yl)-8,8-dimethyl-7,8-dihydro-6H-cyclopenta[e]pyrazolo[1,5-a]pyrimidine-6-carboxamide]"
≥ 1000,–,"CC1(C)C[C@@H](C(=O)Nc2cnc(-n3cccn3)c(Cl)c2)c2cnc3cc(Cl)nn3c21 (single isomer, unassigned) [Example 12, 2-chloro-N-(5-chloro-6-(1H-pyrazol-1-yl)pyridin-3-yl)-8,8-dimethyl-7,8-dihydro-6H-cyclopenta[e]pyrazolo[1,5-a]pyrimidine-6-carboxamide]"
≥ 1000,–,"CC1(C)C[C@@H](C(=O)Nc2cnc(-n3cc(C#N)cn3)c(Cl)c2)c2cnc3cc(Cl)nn3c21 (single isomer, unassigned) [Example 14, 2-chloro-N-(5-chloro-6-(4-cyano-1H-pyrazol-1-yl)pyridin-3-yl)-8,8-dimethyl-7,8-dihydro-6H-cyclopenta[e]pyrazolo[1,5-a]pyrimidine-6-carboxamide]"
100 to 1000,–,"CC1(C)CC(C(=O)Nc2cnc(-n3cc(C#N)cn3)c(Cl)c2)c2cnc3cc(Cl)nn3c21 (single isomer, unassigned) [Example 15, 2-chloro-N-(5-chloro-6-(4-cyano-1H-pyrazol-1-yl)pyridin-3-yl)-8,8-dimethyl-7,8-dihydro-6H-cyclopenta[e]pyrazolo[1,5-a]pyrimidine-6-carboxamide]"
≥ 1000,–,"CC1(C)C[C@@H](C(=O)Nc2cnc(N3CCCC3)c(Cl)c2)c2cnc3cc(Cl)nn3c21 (single isomer, unassigned) [Example 16, 2-chloro-N-(5-chloro-6-(pyrrolidin-1-yl)pyridin-3-yl)-8,8-dimethyl-7,8-dihydro-6H-cyclopenta[e]pyrazolo[1,5-a]pyrimidine-6-carboxamide]"
10 to 100,–,"CC1(C)C[C@H](C(=O)Nc2cnc(N3CCCC3)c(Cl)c2)c2cnc3cc(Cl)nn3c21 (single isomer, unassigned) [Example 17, 2-chloro-N-(5-chloro-6-(pyrrolidin-1-yl)pyridin-3-yl)-8,8-dimethyl-7,8-dihydro-6H-cyclopenta[e]pyrazolo[1,5-a]pyrimidine-6-carboxamide]"
≥ 1000,–,"CCc1cc2ncc3c(n2n1)C(C)(C)C[C@H]3C(=O)Nc1cnc(-n2nccn2)c(Cl)c1 (single isomer, unassigned) [Example 20, N-(5-chloro-6-(2H-1,2,3-triazol-2-yl)pyridin-3-yl)-2-ethyl-8,8-dimethyl-7,8-dihydro-6H-cyclopenta[e]pyrazolo[1,5-a]pyrimidine-6-carboxamide]"
100 to 1000,–,"CC(C)(O)c1cnn(-c2ncc(NC(=O)C3CC(C)(C)c4c3cnc3cc(Cl)nn43)cc2Cl)n1 (single isomer, unassigned) [Example 22, 2-chloro-N-(5-chloro-6-(4-(2-hydroxypropan-2-yl)-2H-1,2,3-triazol-2-yl)pyridin-3-yl)-8,8-dimethyl-7,8-dihydro-6H-cyclopenta[e]pyrazolo[1,5-a]pyrimidine-6-carboxamide]"
–,100 to 1000,"CC1(C)CC(C(=O)Nc2cnc(C(=O)N3CC(F)(F)C3)c(C(F)F)c2)c2cnc3cc(Cl)nn3c21 (stereo not shown) [Example 174, 2-chloro-N-(6-(3,3-difluoroazetidine-1-carbonyl)-5-(difluoromethyl)pyridin-3-yl)-8,8-dimethyl-7,8-dihydro-6H-cyclopenta[e]pyrazolo[1,5-a]pyrimidine-6-carboxamide]"
–,≥ 1000,"CC1(C)CC(C(=O)Nc2cnc(N3CCCC3=O)c(Cl)c2)c2cnc3cc(F)nn3c21 (stereo not shown) [Example 175, N-(5-chloro-6-(2-oxopyrrolidin-1-yl)pyridin-3-yl)-2-fluoro-8,8-dimethyl-7,8-dihydro-6H-cyclopenta[e]pyrazolo[1,5-a]pyrimidine-6-carboxamide]"
–,100 to 1000,"CC1(C)CC(C(=O)Nc2cnc(N3CCC3=O)c(Cl)c2)c2cnc3cc(F)nn3c21 (stereo not shown) [Example 176, N-(5-chloro-6-(2-oxoazetidin-1-yl)pyridin-3-yl)-2-fluoro-8,8-dimethyl-7,8-dihydro-6H-cyclopenta[e]pyrazolo[1,5-a]pyrimidine-6-carboxamide]"
–,100 to 1000,"Cc1cc(NC(=O)C2CC(C)(C)c3c2cnc2cc(F)nn32)cnc1-c1ccn(C)n1 (stereo not shown) [Example 177, 2-fluoro-8,8-dimethyl-N-(5-methyl-6-(1-methyl-1H-pyrazol-3-yl)pyridin-3-yl)-7,8-dihydro-6H-cyclopenta[e]pyrazolo[1,5-a]pyrimidine-6-carboxamide]"
–,≥ 1000,"Cc1cc(NC(=O)C2CC(C)(C)c3c2cnc2cc(F)nn32)cnc1-c1cnn(C)c1 (stereo not shown) [Example 178, 2-fluoro-8,8-dimethyl-N-(5-methyl-6-(1-methyl-1H-pyrazol-4-yl)pyridin-3-yl)-7,8-dihydro-6H-cyclopenta[e]pyrazolo[1,5-a]pyrimidine-6-carboxamide]"
–,≥ 1000,"Cc1cc(NC(=O)C2CC(C)(C)c3c2cnc2cc(F)nn32)cnc1N1CCC1 (stereo not shown) [Example 179, N-(6-(azetidin-1-yl)-5-methylpyridin-3-yl)-2-fluoro-8,8-dimethyl-7,8-dihydro-6H-cyclopenta[e]pyrazolo[1,5-a]pyrimidine-6-carboxamide]"
